According to US4652553A, “Steroidal glycolipids as host resistance stimulators” (priority 1985, dated 1987):

System: Pseudomonas aeruginosa
Assay: In vivo protection of cyclophosphamide-immunocompromised mice against Pseudomonas aeruginosa (LD50, protective index)
Design: species or system Pseudomonas aeruginosa (Immunotype 1); CFl female mice
Settings: Table 3; cyclophosphamide-treated mice; dose not stated in table (initial test dose 40 mg per kg)
Experimental: Groups of 15-20 CFl femal mice (Charles River Breeding, Cambridge, MA) weighing 22-28 gm were injected intraperitoneally (i.p.) with cyclophosphamide (Cytoxan; CY) at 250 mg per kg body weight. One to two hours later they were typically injected again with the test material by the route specified. Four days later, the mice were divided into groups of five, each of which were injected i.p. with a different dilution of a suspension of Pseudomonas aeruginosa (Immunotype 1). The number of survivors was determined periodically and an estimate was made of the number of CFU of Pseudomonas organisms necessary to cause 50% lethality by the cumulative method of L. J. Reed and H. Muench (Am. J. Hygiene 27 (1938) 493-497). A protective index (P.I.) was defined as the LD50 for the mice receiving cyclophosphamide and the test compound divided by the LD50 for the mice recieving cyclophosphamide alone. All control mice were injected with aqueous vehicle in the same route and schedule as the test animals.
All compounds for dosing were suspended in a sterile medium referred to as "aqueous vehicle" which contains 0.9% sodium chloride, 0.5% carboxymethyl cellulose, 0.4% Tween 80, and 0.9% benzyl alcohol unless otherwise stated. Test materials were evaluated via subcutaneous (s.c.), i.p., intramuscular (i.m.), orally (p.o.). and intravenous (i.v.) routes of administration. […]

SMILES: C[C@H](N)[C@H]1CC[C@H]2[C@@H]3CC=C4C[C@@H](OCCCCCCS[C@@H]5O[C@H](CO)[C@@H](O)[C@H](O)[C@@H]5O)CC[C@]4(C)[C@H]3CC[C@]12C [Example 14, 6-(20S-Amino-pregn-5-en-3β-yloxy)hexyl 1-thio-β-D-mannopyranoside]
- Protective Index (log): 4.37 log
